Common to all, as to type: biochemical
For assay [1], the target named is CDK6/CyclinD3 (Homo sapiens (Human), UniProt Q00534). As to the kind of experiment: CDK kinase inhibitory activity, ADP-Glo Kinase Assay, CDK6/CyclinD3. The settings on record: for CDK1/CDK6 / CDK9/CDK6 / Pim-1/CDK6: ratio of IC50s; for CDK1/CDK6: selectivity for CDK6 over CDK1; for CDK9/CDK6: selectivity for CDK6 over CDK9; for Pim-1/CDK6: selectivity for CDK6 over Pim-1. As to the method: (§1) Measurement of CDK kinase inhibitory activity of the compounds of this disclosure.
(§2) In vitro inhibitory effect of the compounds of the disclosure on CDK (CDK1, CDK4 and CDK6) kinase activity was tested by the following method.
(§3) 1.1 Instrument and Kit Information
(§4) 1.2 Experimental Preparation • 1.2.1 Preparation of Kinase Reaction Buffer I: The 5×Reaction Buffer A (Promega; V307A-C) provided in the kit was mixed and diluted with MILLI-Q® H2O and 0.1 M DTT (dithiothreitol) to give 4× kinase buffer, and then MILLI-Q® H2O was further added to finally formulate the solution into 1× Kinase buffer.
(§5) 1 μl of 10 mM standard substance stock solution was taken and added to 9 μl of kinase reaction buffer I and mixed well; then 90 μl of kinase reaction buffer I was added and mixed well; then 100 μl of kinase reaction buffer I was added and mixed well. The final concentration was 50 μM. • b. 40 μl of kinase reaction buffer II was added into B2 to B10 of a 96-well plate, and 50 μl of the above solution was added into B1; • c. 10 μl of solution was taken from well B1, added into B2, and mixed well; then 10 μl of the resulting solution was taken and added into B3, and dilution was carried out in sequence to B9, so as to obtain control solutions that are diluted by 5-fold sequentially. • (2) Preparation of test compound solution: • a. Test compound solutions at a certain concentration were taken, respectively, diluted with kinase reaction buffer I to a final concentration of 50 μM compound solution; • b. 40 μl of kinase reaction buffer II was added into H2 to H10 of the 96-well plate; and 50 μl of the above solution was added into H1; • c. 10 μl of solution was taken from well H1, added into H2, and mixed well; then 10 μl of the resulting solution was taken and added into H3, and dilution was carried out in sequence to H9, so as to obtain test compound solutions that are diluted by 5-fold sequentially. • 1.2.4 Preparation of a mixed solution of reaction substrate and ATP: • a. Preparation of ATP solution: • 200 μl of 0.1 mM ATP solution: 2 μl of 10 mM ATP was added to 198 μl of kinase reaction buffer I; • 300 μl of 50 μM ATP solution: 150 μl of kinase reaction buffer I was added to 150 μl of the above 0.1 mM ATP solution; • b. Preparation of 300 μl of reaction substrate solution: • 150 μl 1 μg/μl reaction substrate stock solution was added to 150 μl kinase reaction buffer I, and mixed well; • c. The above a/b solutions were mixed to obtain mixed solutions, respectively.
(§6) 1.3 Experimental process: • 1.3.1: 2 μl of compound solutions of various concentrations were taken, added to a 384-well plate, and centrifuged 3 minutes; • 1.3.2: 4 μl of kinase solution was added to each well, centrifuged at 5000 rpm and 18° C. for 10 minutes, and shaken on a plate shaker for 10 minutes; • 1.3.3: 4 μl of mixed solution of substrate and ATP was added to each well, centrifuged at 5000 rpm and 18° C. for 10 minutes, and shaken on a plate shaker at 37° C. for 90 minutes; • 1.3.4: The 384-well plate was taken out, and allowed to stand to room temperature; • 1.3.5: 10 μl of ADP-GLO™ reagent was added to each well, centrifuged at 5000 rpm and 18° C. for 18 minutes, and shaken on a plate shaker at 25° C. for 40 minutes, and then the reaction was stopped; • 1.3.6: 20 μl of kinase detection reagent was added to each well, centrifuged at 5000 rpm and 18° C. for 10 minutes, and shaken on a plate shaker at 25° C. for 30 minutes; and • 1.3.7: M1000pro MICROPLATE READER was used to read […] values.
(§7) The inhibition rate of each compound at each concentration point was calculated by the formula as follows and curve fitting was performed by GraphPad Prism 5 software to obtain the IC50 value.
(In general: ADP-Glo turns the ADP formed in a reaction into a luminescent signal.)

In assay [2] the target is Pim-1 (Homo sapiens (Human), UniProt P11309). Nature of the assay: Kinase inhibitory activity on Pim-1. As to the method: as §4, §5, §6, §7
Assay [3] addresses CDK9/CyclinD3 (Homo sapiens (Human), UniProt P50750). As to the kind of experiment: Kinase inhibitory activity, ADP-Glo Kinase Assay, CDK9/CyclinD3. How it is done: as §3, §4, §5, §6, §7
The target of assay [4] is CDK1/CyclinA2 (Homo sapiens (Human), UniProt P06493). As to the kind of experiment: CDK kinase inhibitory activity, ADP-Glo Kinase Assay, CDK1/CyclinA2. How it is done: as §1, §2, §3, §4, §5, §6, §7

As a reminder, the IC50 is the concentration needed to halve the response being measured. Read a low IC50 as greater potency. As for `CCC1(CC)C(C)=Nc2c(F)cc(-c3nc(Nc4ccc(N5CCN(C)CC5)cn4)ncc3F)cc21` [Example 16, 4-(3,3-diethyl-7-fluoro-2-methyl-3H-indol-5-yl)-5-fluoro-N-(5-(4-methylpiperazin-1-yl)pyridin-2-yl)pyrimidine-2-amino], in assay [1], it took 9.02 nM to reach half-maximal inhibition (IC50), the CDK1/CDK6 is recorded as 10.61, the CDK9/CDK6 amounted to 1.81 and the Pim-1/CDK6 is 76.10. In assay [2], this compound gave a half-maximal inhibitory concentration (IC50) of 686 nM. The compound also displayed a half-inhibitory concentration (IC50) in assay [3] of 16.4 nM.

As for `CC1=Nc2c(F)cc(-c3nc(Nc4ccc(C5CCN(CCO)CC5)cn4)ncc3F)cc2C12CCCC2` [Example 30, 2-(4-(6-((5-fluoro-4-(7′-fluoro-2′-methylspiro[cyclopentane-1,3′-indol]-5′-yl)pyrimidin-2-yl)amino)pyridin-3-yl)piperidin-1-yl)ethanol], in assay [1], the midpoint of inhibition, the IC50, lay at 0.49 nM; the CDK1/CDK6 was 360.37; the CDK9/CDK6 stood at 0.88. In assay [4], this compound gave an IC50 of 177 nM. Besides, the half-inhibitory concentration (IC50) in assay [3] was determined as 0.43 nM.

On to `CC1=Nc2c(F)cc(-c3nc(Nc4ccc(N5CCN(CCO)CC5)cn4)ncc3F)cc2C12CCCC2` [Example 28, 2-(4-(6-((5-fluoro-4-(7′-fluoro-2′-methylspiro[cyclopentane-1,3′-indol]-5′-yl)pyrimidin-2-yl)amino)pyridin-3-yl)piperazin-1-yl)ethanol], for which, in assay [1], the IC50 is 6.24 nM, the CDK1/CDK6 is 52.63 and the CDK9/CDK6 was 0.15. The same compound came in with an IC50 in assay [4] of 328 nM. Besides, half-maximal inhibition in assay [3] (IC50) required 0.96 nM.

On to `CC1=Nc2c(F)cc(-c3nc(Nc4ccc(N5CCN(C)CC5)cn4)ncc3F)cc2C12CCCC2` [Example 20, 5-Fluoro-4-(7′-fluoro-2′-methylspiro[cyclopentane-1,3′-indol]-5′-yl)-N-(5-(4-methylpiperazin-1-yl)pyridin-2-yl)pyrimidine-2-amino], for which the results for the 50% inhibitory concentration (IC50) in assay [1], in assay [4] and in assay [3] were 87.6 nM, 1440 nM and 0.24 nM, respectively. Also, the CDK1/CDK6 in assay [1] is on record as 16.49. In assay [1], the CDK9/CDK6 was 0.003.

For `CCN1CCN(Cc2ccc(Nc3ncc(F)c(-c4cc(F)c5c(c4)C(CC)(CC)C(C)=N5)n3)nc2)CC1` [Example 10], in assay [1], the midpoint of inhibition, the IC50, lay at 47.1 nM; the CDK1/CDK6 was 9.25; the CDK9/CDK6 was 0.57. In assay [4], this compound gave an IC50 of 436 nM. This compound also displayed an IC50 in assay [3] of 27 nM.

Take `CC1=Nc2c(F)cc(-c3nc(Nc4ccc(C5CCNCC5)cn4)ncc3F)cc2C12CCCC2` [Example 13, 5-Fluoro-4-(7′-fluoro-2′-methylspiro[cyclopentane-1,3′-indol]-5′-yl)-N-(5-(piperidin-4-yl)pyridin-2-yl)pyrimidine-2-amino]: in assay [1], the IC50 is 0.39 nM, the CDK1/CDK6 is recorded as 838.46, the CDK9/CDK6 was 6.56 and the Pim-1/CDK6 is 5.69. The compound also had an IC50 in assay [4] of 327 nM. Besides, inhibition in assay [2] was half-maximal at 2.22 nM (IC50). The same compound showed a 50% inhibitory concentration (IC50) in assay [3] of 2.56 nM.

Turning to `CCN1CCN(Cc2ccc(Nc3ncc(F)c(-c4ccc5c(c4)C4(CCCC4)C(C)=N5)n3)nc2)CC1` [Example 9, N-(5-((4-ethylpiperazin-1-yl)methyl)pyridin-2-yl)-5-fluoro-4-(2′-methylspiro [cyclopentane-1,3′-indol]-5′-yl)pyrimidine-2-amino], in assay [1], the IC50 is 20.4 nM, the CDK1/CDK6 is on record as 13.13, the CDK9/CDK6 is on record as 0.71 and the Pim-1/CDK6 is given as 8.51. Moreover, the half-maximal inhibitory concentration (IC50) in assay [4] is 268 nM. Moreover, in assay [2], the IC50 worked out at 174 nM. This compound also registered an IC50 in assay [3] of 14.4 nM.

As to `CCN1CCN(Cc2ccc(Nc3ncc(F)c(-c4cc(F)c5c(c4)C4(CCCC4)C(C)=N5)n3)nc2)CC1` [Example 3], the values for the IC50 in assay [1] and in assay [2] were 79.1 nM and 198 nM, respectively.

Regarding `CCC1(C)C(C)=Nc2c(F)cc(-c3nc(Nc4ccc(C5CCN(C)CC5)cn4)ncc3F)cc21` (stereo not drawn) [Example 24, 4-(3-ethyl-7-fluoro-2,3-dimethyl-3H-indol-5-yl)-5-fluoro-N-(5-(1-methylpiperidin-4-yl)pyridin-2-yl)pyrimidine-2-amino], in assay [1], the IC50 stood at 12.9 nM, the CDK1/CDK6 is reported as 5.94, the CDK9/CDK6 was determined as 0.13 and the Pim-1/CDK6 amounted to 5.66. In assay [4], this compound displayed a concentration for half-maximal inhibition (IC50) of 76.4 nM. Inhibition in assay [2] was half-maximal at 72.8 nM (IC50). It took 1.74 nM to reach half-maximal inhibition in assay [3] (IC50).

With `CCC1(C)C(C)=Nc2c(F)cc(-c3nc(Nc4ccc(N5CCNCC5)cn4)ncc3F)cc21` (stereo not drawn) [Example 7, 4-(3-ethyl-7-fluoro-2,3-dimethyl-3H-indol-5-yl)-5-fluoro-N-(5-(piperazin-1-yl)pyridin-2-yl)pyrimidine-2-amino], in assay [1], inhibition was half-maximal at 3.26 nM (IC50), the CDK1/CDK6 was found to be 25.71, the CDK9/CDK6 came out at 1.40 and the Pim-1/CDK6 is given as 141.53. The IC50 in assay [2] amounted to 461 nM. The same compound gave an IC50 in assay [3] of 4.58 nM.

As for `CC1=Nc2ccc(-c3nc(Nc4ccc(N5CCNCC5)cn4)ncc3F)cc2C12CCCC2` [Example 14, 5-fluoro-4-(2′-methylspiro[cyclopentane-1,3′-indol]-5′-yl)-N-(5-(piperazin-1-yl)pyridin-2-yl)pyrimidine-2-amino], in assay [1], the IC50 was 4.07 nM, the CDK1/CDK6 is listed as 57.40 and the Pim-1/CDK6 was found to be 7.03. In assay [4], this compound showed an IC50 of 234 nM. For the same compound, the IC50 in assay [2] came out at 28.6 nM.

In the case of `CC1=Nc2c(F)cc(-c3nc(Nc4ccc(N5CCNCC5)cn4)ncc3F)cc2C1(C)C` [Example 1, 5-fluoro-4-(7-fluoro-2,3,3-trimethyl-3H-indol-5-yl)-N-(5-(piperazin-1-yl)pyridin-2-yl)pyrimidine-2-amino], in assay [1], the half-inhibitory concentration (IC50) came to 43 nM, the CDK1/CDK6 was 51.68, the CDK9/CDK6 was 5.69 and the Pim-1/CDK6 was found to be 5.12. In addition, in assay [2], the IC50 turned out to be 220 nM. The compound also displayed an IC50 in assay [3] of 245 nM.

Source of the values: US11091476B2, “Protein kinase inhibitors, preparation method and medical use thereof” (Gan & Lee Pharmaceuticals, priority 2015, dated 2021).
